Data reported in publication PMC4199632, “Exploring the Anti-Cancer Activity of Novel Thiosemicarbazones Generated through the Combination of Retro-Fragments: Dissection of Critical Structure-Activity Relationships” (PLoS ONE, 2014).

How the values were obtained:
[1] = system: HCT116 p53−/− colon cancer cells; assay: Proliferation assay (MTS, 96 h); type: cell-based, human; details: Homo sapiens, HCT-116, 96 h, 96 h incubation, MTS; mean ±SD (3 experiments)
Experimental: (§1) The human cancer cell types (neuroepithelioma (SK-N-MC), colon cancer (HCT116 with wild-type p53 (p53^+/+)), Burkitt's lymphoma (Raji) and cervical carcinoma (HeLa)) cells and normal human dermal fibroblasts (NHDF) were obtained from the American Type Culture Collection (ATCC, Manassas, VA, USA). HCT116 null p53 (p53^−/−) cells were obtained from the Maria Sklodowska-Curie Memorial Cancer Center and Institute of Oncology, Poland.
(§2) The SK-N-MC cells were cultured in minimum essential medium (MEM; Life Technologies, Grand Island, New York, USA) containing 10% (v/v) fetal bovine serum (FBS; Life Technologies), 1 mM sodium pyruvate (Life Technologies), 1% (v/v) non-essential amino acids (Life Technologies), 2 mM L-glutamine (Life Technologies), 100 U/mL penicillin (Life Technologies), 100 µg/mL streptomycin (Life Technologies) and 0.28 µg/mL fungizone (Bristol Myers Squibb Pharmaceuticals, Montreal, Canada). The HCT116 and NHDF cells were grown in Dulbecco's modified Eagle's medium (DMEM; Sigma-Aldrich) supplemented with 12% (v/v) heat-inactivated FBS (HCT116; Life Technologies) or 15% (v/v) FBS (NHDF; Life Technologies), 100 µg/mL of gentamicin (Polfa Warszawa S.A., Warsaw, Poland), 100 µg/mL of streptomycin (Polfa) and 100 U/mL of penicillin (Polfa). The Raji and HeLa cells were cultured in Roswell Park Memorial Institute medium (RPMI-1640; Sigma-Aldrich) with the addition of 10% (v/v) heat-inactivated FBS (Life Technologies) and the supplements described for SK-N-MC cells above. All cell lines were cultured under standard conditions at 37°C in a humidified atmosphere at 5% CO2 and were subcultured every 3–4 days as required.
(§3) The cells were seeded in 96-well plates (SK-N-MC: 1.5×10^4 cells/well; HeLa: 5.0×10^3 cells/well; Raji: 3.0×10^3 cells/well; HCT116: 3.5×10^3 cells/well; NHDF: 3.0×10^3 cells/well) 24 h prior to the addition of the novel compounds. The assays were performed using a 72 h (SK-N-MC, Raji, HeLa) or 96 h (HCT 116, NHDF) incubation period with the agents at 37°C. […] Additionally, DFO and Dp44mT were included as positive controls in all experiments as their activity is well characterized, [42], [50].
(§4) Chelator stock solutions were prepared in DMSO and diluted in media so that the final [DMSO] <0.05%. The results were expressed as a percentage of the control and the resulting IC50 values were calculated using GraphPad Prism 5 (GraphPad Software, Inc., La Jolla, CA, USA). The IC50 was defined as the concentration necessary to reduce the absorbance to 50% of the untreated control. Each individual compound was tested in triplicate in a single experiment, with each experiment being repeated three times. After incubation of HCT 116 and NHDF cells with the tested compounds, 20 µL of the CellTiter 96 Aqueous One Solution - MTS (Promega, Madison, WI, USA) solution was added to each well (with 100 µL of DMEM without phenol red) and incubated for 1 h/37°C. The optical density of the samples was analyzed at 490 nm.

[2] = system: HCT116 p53+/+ colon cancer cells; assay: Proliferation assay (MTS, 96 h); type: cell-based, human; details: Homo sapiens, HCT-116; 96 h incubation, MTS; mean ±SD (3 experiments)
Experimental: as §1, §2, §3, §4

[3] = system: Raji Burkitt's lymphoma cells; assay: Proliferation assay (MTT, 72 h); type: cell-based; details: Homo sapiens, 72 h incubation, mean ±SD (3 experiments)
Experimental: as §1, §2, §3, §4
(§5) MTT (3-[4,5-dimethylthiazol-2-yl]-2,5-diphenyltetrazolium bromide) was used to evaluate the anti-proliferative effects of the chelators in SK-N-MC and Raji cells. Following incubation with the investigated compounds, 10 µL of MTT (5 mg/mL in PBS; Sigma-Aldrich) was added to each well. After a 2 h (SK-N-MC) or 4 h (Raji) incubation, the plates were centrifuged, and the cells were lysed with 100 µL of 10% SDS-50% isobutanol in 0.01 M HCl (SK-N-MC) or DMSO (Raji). The absorbance was measured at 570 nm. The anti-proliferative effects of these novel agents on HeLa cells were estimated using crystal violet staining (0.5% crystal violet solution for 10 min). Finally, the wells were rinsed with water and the cells were lysed with 2% SDS. The optical density of the samples was analyzed at 595 nm.

[4] = system: SK-N-MC neuroepithelioma cells; assay: Proliferation assay (MTT, 72 h); type: cell-based; details: Homo sapiens, 72 h incubation, mean ±SD (3 experiments)
Experimental: as §1, §2, §3, §4, §5

[5] = system: normal human dermal fibroblast (NHDF) cells; assay: Proliferation assay (MTS, 96 h), normal mortal cells; type: cell-based; details: Homo sapiens, NHDF, 96 h, 96 h incubation, mean ±SD (3 experiments)
Experimental: as §1, §2, §3, §4

[6] = system: HeLa cervical carcinoma cells; assay: Proliferation assay (crystal violet, 72 h); type: cell-based; details: Homo sapiens, 72 h incubation, mean ±SD (3 experiments)
Experimental: as §1, §2, §3, §4, §5

[7] = Ascorbate oxidation assay (iron complexes); type: biochemical; details: iron complex; for Ascorbate oxidation (% of the control): FeIII 10 µM, ascorbate 100 µM
Experimental: The ability of the iron complexes of the novel ligands to mediate the oxidation of the physiological substrate, ascorbate, was examined using established methods, [18], [22], [52], [53]. Ascorbic acid (100 µM) was prepared immediately prior to each experiment and was incubated in the presence of Fe^III (10 µM; as FeCl3), the chelator (1–60 µM) and a 50-fold molar excess of citrate (500 µM). The absorbance at 265 nm was measured after 10 and 40 min and the difference in absorbance at these time points was calculated. The results of these experiments were expressed as iron-binding equivalents (IBE) due to the different denticity of the chelators examined. The chelators, Dp44mT, DFO and ethylenediaminetetraacetic acid (EDTA) were used as controls as the ability of their iron complexes to oxidize ascorbate has been extensively characterized, [15], [52], [53].
The ability of the iron complexes of the novel TSCs to catalyze the oxidation of the physiological substrate, ascorbate, was important to assess as redox cycling may play a critical role in their anti-proliferative activity, [15], [18], [52], [53]. Thus, the oxidation of ascorbate mediated by the iron complexes of series 1–6 were examined in comparison to the iron complexes of the control compounds, DFO, EDTA and Dp44mT, as the ability of the latter to oxidize ascorbate is well characterized, [15], [52], [53], [68]. The results were expressed as a percentage of the control (no chelator) at iron-binding equivalents (IBEs) of 0.1 (excess “free” iron), 1 (iron-chelator complexes with a fully filled coordination sphere), or 3 (excess free chelator), due to the different denticity of the chelators examined (Fig. 10).
Figure 10 Effect of the iron complexes of (A) series 1, (B) series 2, (C) series 3, (D) series 4, (E) series 5 and (F) series 6 chelators, relative to DFO, Dp44mT and EDTA, on ascorbate oxidation. Chelators at iron-binding equivalent (IBE) ratios of 0.1, 1, and 3 were incubated in the presence of Fe^III (10 µM) and ascorbate (100 µM). The UV-Vis absorbance at 265 nm was recorded after 10 and 40 min, and the difference between the time points was calculated. Results are mean ±SD (3 experiments).

Compound	IC50 [1]	IC50 [2]	IC50 [3]	IC50 [4]	IC50 [5]	IC50 [6]	Ascorbate oxidation (% of the control) ([7]; IBE 3)	Ascorbate oxidation compared with controls ([7]; IBE 3)	Ascorbate oxidation (% of the control) ([7]; IBE 0.1)	Ascorbate oxidation (% of the control) ([7]; IBE 1)
CCN1CCN(C(=S)NN=C(c2ccccn2)c2ccccn2)CC1 [1a]	0.04 ± 0.003 µM	0.02 ± 0.002 µM	80 ± 20 nM	180 ± 90 nM	0.017 ± 0.004 µM	0.48 ± 0.31 µM				
S=C(N/N=C/c1ccc2ccccc2n1)N1CCOCC1 [2c]	1.56 ± 1.12 µM	1.49 ± 0.02 µM	60 ± 10 nM	1400 ± 690 nM	3.27 ± 0.88 µM	1.75 ± 0.33 µM				
S=C(N/N=C/c1ccc2ccccc2n1)N1CCN(c2cnccn2)CC1 [2e]	0.48 ± 0.15 µM	0.088 ± 0.044 µM	290 ± 110 nM	480 ± 100 nM	9.44 ± 3.84 µM	1.56 ± 0.44 µM	200–265%			
CCN1CCN(C(=S)N/N=C/c2ccc3cccc(O)c3n2)CC1 [3a]	8.83 ± 0.63 µM	9.25 ± 1.42 µM	200 ± 20 nM	820 ± 610 nM	15.8 ± 4.6 µM	3.41 ± 1.46 µM		increased levels of ascorbate oxidation		
Oc1cccc2ccc(/C=N/NC(=S)N3CCN(c4ccccc4)CC3)nc12 [3b]	4.67 ± 2.04 µM	4.18 ± 1.46 µM	190 ± 20 nM	> 6250 nM	8.88 ± 1.07 µM	8.45 ± 2.09 µM				
Oc1cccc2ccc(/C=N/NC(=S)N3CCN(c4ccccn4)CC3)nc12 [3d]	8.46 ± 0.25 µM	8.41 ± 1.78 µM	120 ± 40 nM	> 6250 nM	10.2 ± 2.4 µM	6.59 ± 0.13 µM				
Oc1ccc2cccnc2c1/C=N/NC(=S)N1CCN(c2ccccc2)CC1 [4b]	8.88 ± 2.53 µM	7.45 ± 0.66 µM	2230 ± 1200 nM	4460 ± 780 nM	10.1 ± 1.2 µM	4.38 ± 0.95 µM				
Oc1ccc2cccnc2c1/C=N/NC(=S)N1CCN(c2ccccn2)CC1 [4d]	6.84 ± 5.48 µM	9.15 ± 1.19 µM	1550 ± 400 nM	4540 ± 1600 nM	10.1 ± 2.7 µM	2.73 ± 0.55 µM				
Oc1ccc2cccnc2c1/C=N/NC(=S)N1CCN(c2cnccn2)CC1 [4e]	9.44 ± 1.35 µM	10.1 ± 0.7 µM	4550 ± 2520 nM	4170 ± 1440 nM	9.56 ± 1.44 µM	3.49 ± 0.04 µM				
CN(C(=S)N/N=C/c1c(O)ccc2cccnc12)C1CCCCC1 [4f]	18.9 ± 3.6 µM	19 ± 0.5 µM	460 ± 230 nM	> 6250 nM	9.18 ± 3.68 µM	13.3 ± 1 µM				
CCN1CCN(C(=S)N/N=C/c2cnc3ccccc3n2)CC1 [5a]	8.72 ± 1.64 µM	6.15 ± 1.28 µM	110 ± 20 nM		2.73 ± 1.77 µM	1.12 ± 0.03 µM				
S=C(N/N=C/c1cnc2ccccc2n1)N1CCN(c2ccccc2)CC1 [5b]	2.24 ± 1.47 µM	3.92 ± 0.74 µM	500 ± 50 nM	3440 ± 1120 nM	9.61 ± 0.9 µM	6.05 ± 2.73 µM				
S=C(N/N=C/c1cnc2ccccc2n1)N1CCN(c2ccccn2)CC1 [5d]	9.41 ± 1.04 µM	9.4 ± 0.8 µM	490 ± 90 nM	2330 ± 90 nM	7.13 ± 0.82 µM	1.78 ± 0.77 µM		decreased ascorbate oxidation relative to the control		
S=C(N/N=C/c1cnc2ccccc2n1)N1CCN(c2cnccn2)CC1 [5e]	8.49 ± 3.05 µM	5.73 ± 0.75 µM	270 ± 10 nM	1980 ± 680 nM	15.8 ± 5.1 µM	3.77 ± 1.71 µM		increased levels of ascorbate oxidation		
Oc1ccccc1/C=N/NC(=S)N1CCN(c2cnccn2)CC1 [6e]	10.7 ± 1 µM	10.9 ± 0.7 µM	9830 ± 2050 nM	> 6250 nM	> 25 µM	19.2 ± 2.5 µM				
O=C(O)CN(CCN(CC(=O)O)CC(=O)O)CC(=O)O [EDTA, ethylenediaminetetraacetic acid, reference compound]							936%		208%	449%
